Measured values as given in ChEMBL document CHEMBL6134910, “Discovery of a New Class of Orexin 2 Receptor Agonists as a Potential Treatment for Narcolepsy” (J Med Chem, 2025).

These compounds were tested against Cytochrome P450 2C9 (Homo sapiens, UniProt P11712) (assay: Inhibition of CYP2C9 in human liver microsome using diclofenac as substrate incubated for 6 mins by LC-MS/MS analysis).
Cytochrome P450 2C9, sequence (P11712 whole entry): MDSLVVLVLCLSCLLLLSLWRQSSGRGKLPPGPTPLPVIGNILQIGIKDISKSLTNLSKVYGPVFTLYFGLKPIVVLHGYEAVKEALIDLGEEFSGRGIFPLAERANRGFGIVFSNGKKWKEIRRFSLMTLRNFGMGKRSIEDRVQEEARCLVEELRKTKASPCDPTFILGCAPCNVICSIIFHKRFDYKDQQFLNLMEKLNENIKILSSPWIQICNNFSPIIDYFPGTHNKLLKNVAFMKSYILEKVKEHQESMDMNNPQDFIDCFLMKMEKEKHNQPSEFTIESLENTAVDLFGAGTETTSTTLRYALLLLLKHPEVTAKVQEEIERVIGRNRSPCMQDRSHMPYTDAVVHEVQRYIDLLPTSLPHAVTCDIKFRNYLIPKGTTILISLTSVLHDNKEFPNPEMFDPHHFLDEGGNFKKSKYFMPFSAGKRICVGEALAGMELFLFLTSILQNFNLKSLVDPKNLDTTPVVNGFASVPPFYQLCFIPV
Format: ADME, microsomes
`Cn1nnc(-c2oncc2CC(=O)N(C2CC3(CC3)C2)[C@@H](C(=O)NC23CC(C)(C2)C3)c2cc(F)ccc2F)n1` was tested, and the IC50 was 24 µM. In the case of `Cn1nnc(-c2c(CC(=O)N(C3CC4(CC4)C3)[C@@H](C(=O)NC34CC(C)(C3)C4)c3ccccc3Cl)cnn2C)n1`, the IC50 is reported as 20 µM.

The compounds below were run against T1, Orexin receptor type 2 (Homo sapiens, UniProt O43614) (assay: Agonist activity at human OX2 receptor expressed in HEK293 cells assessed as IP-1 accumulation incubated for […] by HTRF IP-one Gq detection assay).
T1 sequence (O43614 whole entry): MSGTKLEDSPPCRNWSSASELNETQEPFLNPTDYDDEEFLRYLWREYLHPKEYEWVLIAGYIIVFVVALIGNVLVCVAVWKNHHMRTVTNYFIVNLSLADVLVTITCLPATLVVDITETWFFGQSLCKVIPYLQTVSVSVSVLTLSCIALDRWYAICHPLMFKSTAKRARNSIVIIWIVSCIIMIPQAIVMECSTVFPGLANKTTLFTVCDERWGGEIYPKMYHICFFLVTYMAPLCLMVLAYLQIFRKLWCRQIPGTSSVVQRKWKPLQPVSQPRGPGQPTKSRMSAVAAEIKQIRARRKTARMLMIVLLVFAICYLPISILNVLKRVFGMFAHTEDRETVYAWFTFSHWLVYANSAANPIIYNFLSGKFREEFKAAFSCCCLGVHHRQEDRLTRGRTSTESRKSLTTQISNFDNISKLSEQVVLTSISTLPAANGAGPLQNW
Format: functional, cell-based
For `Cn1ncc(CC(=O)N(C2CCCC2)C(C(=O)NC23CC(C)(C2)C3)C2CCCC2)c1-c1ccccc1` (centres undefined), the EC50 was over 20 µM.

The compounds below were run against Cytochrome P450 2D6 (Homo sapiens, UniProt P10635) (assay: Inhibition of CYP2D6 in human liver microsome using dextrometorphan as substrate incubated for 30 mins by LC-MS/MS analysis).
Cytochrome P450 2D6, sequence (P10635 whole entry): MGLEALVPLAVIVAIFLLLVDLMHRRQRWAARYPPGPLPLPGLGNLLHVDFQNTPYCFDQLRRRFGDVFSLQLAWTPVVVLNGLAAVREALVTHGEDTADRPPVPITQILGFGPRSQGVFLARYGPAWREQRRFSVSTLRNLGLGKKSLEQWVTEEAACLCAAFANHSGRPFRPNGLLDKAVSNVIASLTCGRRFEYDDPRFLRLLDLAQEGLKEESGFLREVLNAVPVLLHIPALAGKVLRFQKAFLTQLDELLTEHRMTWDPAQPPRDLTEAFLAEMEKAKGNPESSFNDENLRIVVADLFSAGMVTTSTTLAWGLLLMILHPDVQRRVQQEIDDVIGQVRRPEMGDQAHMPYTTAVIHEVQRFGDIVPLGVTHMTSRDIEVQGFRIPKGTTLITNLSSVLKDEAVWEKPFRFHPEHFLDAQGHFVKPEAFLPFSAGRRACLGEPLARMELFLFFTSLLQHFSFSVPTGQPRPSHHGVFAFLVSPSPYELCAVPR
Format: ADME, microsomes
`Cn1nnc(-c2oncc2CC(=O)N(C2CC3(CC3)C2)[C@@H](C(=O)NC23CC(C)(C2)C3)c2cc(F)ccc2F)n1` showed an IC50 of 20 µM. `Cn1nnc(-c2c(CC(=O)N(C3CC4(CC4)C3)[C@@H](C(=O)NC34CC(C)(C3)C4)c3ccccc3Cl)cnn2C)n1` gave an IC50 of 5.3 µM.

Each compound was assayed against Cytochrome P450 3A4 (Homo sapiens, UniProt P08684) (assay: Inhibition of CYP3A4 in human liver microsome using testosterone as substrate incubated for 7 mins).
Cytochrome P450 3A4, sequence (P08684 whole entry): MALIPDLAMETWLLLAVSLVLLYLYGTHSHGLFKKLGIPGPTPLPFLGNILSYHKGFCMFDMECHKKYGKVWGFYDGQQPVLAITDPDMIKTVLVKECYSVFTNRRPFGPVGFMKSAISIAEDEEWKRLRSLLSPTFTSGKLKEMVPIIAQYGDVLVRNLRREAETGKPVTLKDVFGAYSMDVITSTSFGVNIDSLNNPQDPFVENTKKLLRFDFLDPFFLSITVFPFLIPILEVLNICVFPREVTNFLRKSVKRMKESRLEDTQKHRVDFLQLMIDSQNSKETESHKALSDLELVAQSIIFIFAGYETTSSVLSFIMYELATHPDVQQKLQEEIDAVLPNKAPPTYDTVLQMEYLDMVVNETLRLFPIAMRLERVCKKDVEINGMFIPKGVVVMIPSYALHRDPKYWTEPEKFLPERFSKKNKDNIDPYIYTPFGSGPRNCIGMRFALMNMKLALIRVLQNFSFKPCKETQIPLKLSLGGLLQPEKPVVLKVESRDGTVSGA
Format: ADME, microsomes
Work on `CC12CC(NC(=O)[C@@H](c3ccccc3)N(C(=O)Cc3cnnn3-c3ccccc3)C3CCCC3)(C1)C2` yielded an IC50 of 1.6 µM. For `Cn1ncc(CC(=O)N(C2CCCC2)C(C(=O)NC23CC(C)(C2)C3)c2ccccc2)c1-c1c(F)cccc1F` (centres undefined), the IC50 was 7 µM. With `Cn1ncc(CC(=O)N(C2CCCC2)[C@@H](C(=O)NC23CC(C)(C2)C3)c2ccccc2)c1-n1nccn1` the IC50 was 4 µM. Work on `Cn1ncc(CC(=O)N(C2CCCC2)C(C(=O)NC23CC(C)(C2)C3)c2ccccc2)c1-c1ncccn1` (centres undefined) yielded an IC50 of 6.8 µM. With `Cc1nsc(CC(=O)N(C2CCCC2)[C@@H](C(=O)NC23CC(C)(C2)C3)c2ccccc2)c1-c1ccccc1` the IC50 was 1.4 µM. In the case of `Cn1ncc(CC(=O)N(C2CCCC2)[C@@H](C(=O)NC23CC(C)(C2)C3)c2ccccc2)c1-c1cccnc1`, the IC50 is reported as 7.6 µM. For `Cn1ncc(CC(=O)N(C2CCCC2)C(C(=O)NC23CC(C)(C2)C3)c2ccccc2)c1-c1coc(C2CC2)n1` (centres undefined), the IC50 was 4.2 µM. Compound `Cn1nnc(-c2c(CC(=O)N(C3CCCC3)C(C(=O)NC34CC(C)(C3)C4)c3ccccc3)cnn2C)n1` (centres undefined) has an IC50 of 12 µM. With `CC(C)N(C(=O)Cc1cnn(C)c1-c1ccccc1)[C@@H](c1cn(C23CC(C)(C2)C3)nn1)c1cc(F)ccc1F` the IC50 was 1 µM. In the case of `O=C(NC1CCCCC1)[C@@H](c1ccccc1)N(C[C@H]1CCCO1)C(=O)Cn1cncc1-c1ccccc1`, the IC50 is reported as 0.25 µM. For `CC12CC(NC(=O)[C@@H](c3ccccc3)N(C(=O)Cc3cnn(C(F)F)c3-c3ccccc3)C3CCCC3)(C1)C2`, the IC50 was 2 µM. With `CC12CC(NC(=O)[C@@H](c3ccccc3)N(C(=O)Cn3cnc(Cl)c3-c3ccccc3)C3CCCC3)(C1)C2` the IC50 was 18 µM. Compound `CC(C)N(C(=O)Cc1cnn(C)c1-c1ccccc1)[C@@H](C(=O)NC12CC(C)(C1)C2)c1cc(F)ccc1F` has an IC50 of 0.3 µM. `Cc1ncn(CC(=O)N(C2CCCC2)[C@@H](C(=O)NC23CC(C)(C2)C3)c2ccccc2)c1-c1ccccc1` showed an IC50 of 7.3 µM. With `COc1cccc(-c2c(CC(=O)N(C3CCCC3)C(C(=O)NC34CC(C)(C3)C4)c3ccccc3)cnn2C)c1F` (centres undefined) the IC50 was 0.9 µM. For `COc1cccc(-c2c(CC(=O)N(C3CCCC3)C(C(=O)NC34CC(C)(C3)C4)c3ccccc3)cnn2C)c1` (centres undefined), the IC50 was 1.5 µM. Work on `Cn1ncc(CC(=O)N(C2CCCC2)[C@@H](C(=O)NC23CC(C)(C2)C3)c2ccccc2)c1-c1ccccc1` yielded an IC50 of 5 µM. `O=C(NC1CCCCC1)[C@@H](c1ccccc1)N(C[C@H]1CCCO1)C(=O)Cn1cnc2ccccc21` showed an IC50 of 10 µM. In the case of `Cn1ccc(-c2c(CC(=O)N(C3CCCC3)C(C(=O)NC34CC(C)(C3)C4)c3ccccc3)cnn2C)n1` (centres undefined), the IC50 is reported as 2.5 µM. `CC12CC(NC(=O)[C@@H](c3ccccc3)N(C(=O)Cc3cnoc3-c3ccccc3)C3CCCC3)(C1)C2` gave an IC50 of 1.9 µM. `Cn1ncc(CC(=O)N(C2CCCC2)C(C(=O)NC23CC(C)(C2)C3)c2ccccc2)c1-c1ccc(F)cc1F` (centres undefined) gave an IC50 of 1.6 µM. With `Cc1ncn(CC(=O)N(C[C@H]2CCCO2)[C@@H](C(=O)NC2CCCCC2)c2ccccc2)c1-c1ccccc1` the IC50 was 7.3 µM.

What follows are compounds tested against T2, Orexin/Hypocretin receptor type 1 (Homo sapiens, UniProt O43613) (assay: Agonist activity at human OX1 receptor expressed in HEK293 cells assessed as IP-1 accumulation incubated for […] by HTRF IP-one Gq detection assay).
T2 sequence (O43613 whole entry): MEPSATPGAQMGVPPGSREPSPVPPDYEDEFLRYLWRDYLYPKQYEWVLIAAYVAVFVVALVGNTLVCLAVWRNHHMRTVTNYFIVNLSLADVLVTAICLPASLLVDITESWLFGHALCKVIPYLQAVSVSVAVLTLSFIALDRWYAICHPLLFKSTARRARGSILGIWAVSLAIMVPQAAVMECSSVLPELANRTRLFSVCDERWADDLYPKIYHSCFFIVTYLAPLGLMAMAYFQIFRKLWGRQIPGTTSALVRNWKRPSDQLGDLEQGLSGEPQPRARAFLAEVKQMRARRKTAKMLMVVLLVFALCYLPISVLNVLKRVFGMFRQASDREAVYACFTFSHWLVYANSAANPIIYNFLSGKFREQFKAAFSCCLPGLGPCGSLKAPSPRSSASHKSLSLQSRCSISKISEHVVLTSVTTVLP
Format: functional, cell-based
Work on `Cn1nnc(-c2oncc2CC(=O)N(C2CC3(CC3)C2)[C@@H](C(=O)NC23CC(C)(C2)C3)c2cc(F)ccc2F)n1` yielded an EC50 of over 20 µM. `Cn1nnc(-c2c(CC(=O)N(C3CC4(CC4)C3)[C@@H](C(=O)NC34CC(C)(C3)C4)c3ccccc3Cl)cnn2C)n1` was tested, and the EC50 was over 20 µM.
